Measurements as given in US20070225363A1, “Methods and Agents for Inhibiting Dynamin-Dependent Endocytosis” (the University of Newcastle Research Associates Ltd., priority 2003, published 2007).
Entries after “also recorded” stand apart in the source; their conditions may differ.

Legend:
dynamin I = dynamin I (Ovis aries, UniProt A0ACI6NZN1); assay: Phospholipid binding and helix assembly (sedimentation assay); conditions: 10 or 100 μM, PS liposomes
RalA = target: T1, RalA (Homo sapiens, UniProt P11233); assay: [α-32P]-GTP binding to small G protein RalA; conditions: data not shown
T1 sequence (P11233 1-206): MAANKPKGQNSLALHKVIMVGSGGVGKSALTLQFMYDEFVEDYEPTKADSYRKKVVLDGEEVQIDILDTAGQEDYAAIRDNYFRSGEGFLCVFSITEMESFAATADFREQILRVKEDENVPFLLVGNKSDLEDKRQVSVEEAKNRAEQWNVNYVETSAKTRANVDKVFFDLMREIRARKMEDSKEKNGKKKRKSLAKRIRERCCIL
Method: (§1) Competition of these drugs with GTP for the active site of 4 small G proteins (Rab3A, Ras, Arf2, RalA) was also tested.

Rab3A = target: T2, Rab3A (Homo sapiens, UniProt P20336); assay: [α-32P]-GTP binding to small G protein Rab3A; conditions: data not shown
T2 sequence (P20336 1-220): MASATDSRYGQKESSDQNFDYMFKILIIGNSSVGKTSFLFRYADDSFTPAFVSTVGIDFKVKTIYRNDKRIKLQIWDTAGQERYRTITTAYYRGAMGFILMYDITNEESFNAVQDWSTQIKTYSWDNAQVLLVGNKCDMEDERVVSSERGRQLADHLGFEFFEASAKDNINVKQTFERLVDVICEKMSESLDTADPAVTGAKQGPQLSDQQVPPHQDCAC
Method: as §1

ΔPH domain dynamin I = assay: GTPase assay with recombinant dynamin I lacking the PH domain; type: biochemical
Method: The plasmid for GST-Amph2-SH3 (muscle Amph2) (Butler et al., 1997) was provided by Pieto DeCamilli, Yale, Connecticut, USA, in pGEX2T vectors. The plasmid was grown in E. coli and the GST-Amph2-SH3 fusion protein was purified on glutathione (GSH)-Sepharose by elution with 10 mM reduced GSH in 20 mM Tris-HCl, pH 7.5, dialysed against the same buffer without GSH and stored at 4° C. Dynamin was purified from sheep brain by extraction from the peripheral membrane fraction of whole brain (Robinson et al., 1993) and affinity purification on GST-Amph2-SH3-sepharose as previously described (Marks and McMahon., 1998), yielding 8 mg protein from 250 g sheep brain. Recombinant dynamin II was expressed in insect cells and was a gift from Dr Sandra Schmid (Scripps, San Diego, Calif.). Recombinant dynamin I lacking the PH domain (dynamin PH, provided by Robin Scaife) was expressed in insect cells using baculoviral infection (Salim et al., 1996).
Dynamin GTPase activity was determined by hydrolysis of [ ? -^32P]GTP by a method modified from that described previously (Robinson et al., 1993). Briefly, purified dynamin I or dynamin II (0.2 μg/tube) was incubated in GTPase buffer (10 mM Tris, 10 mM NaCl, 2 mM Mg^2+, 0.05% Tween 80, pH 7.4, 1 μg/ml leupeptin and 0.1 mM PMSF) and a GTP cocktail containing 0.3 mM GTP and 1.3 μCi [ ? -^32P]-GTP in the presence or absence of varying concentrations of inhibitors or DMSO vehicle for 10 min at 30 C. The final assay volume was 40 μl. Dynamin activity was measured as either basal or phospholipid-stimulated with the addition of 5 μg/ml L-phosphatidylserine. The reaction was terminated with 100 μl of GTPase stop buffer (2% formic add, 8% acetic acid, pH 1.9), followed by 600 μl of acid-washed charcoal solution (7% charcoal in acidic solution (w/v)) and 100 μl BSA (5 mg/ml). After centrifuging for 5 min (13,000 rpm at room temperature), 200 μl of each supernatant was counted in a -counter for the release of ^32Pi from [ ? -^32P]-GTP. […]

[1] = system: isolated nerve terminals (synaptosomes); assay: Synaptic vesicle endocytosis, FM2-10 uptake in synaptosomes; type: cell-based, rat; conditions: 100 μM, synaptosomes
Method: Isolated nerve terminals (synaptosomes) were prepared from rat cerebral cortex by centrifugation on discontinuous percoll gradients (Dunkley et al., 1986). Fractions 3 and 4 were pooled and used in all experiments. Endocytosis was measured using uptake of the fluorescent dye FM2-10 as previously described (Cousin and Robinson 2000a). Synaptosomes (0.6 mg in 2 ml) were incubated for 5 min at 37° C. in plus or minus Ca^2+ Krebs-like solution. FM2-10 ([…]) was added 1 min before stimulation with 30 mM KCl (S1). As FM2-10 is taken up by vesicles via endocytosis at the S1 phase of stimulation, synaptosomes were incubated with antagonists during this phase. […] After 2 min of stimulation synaptosomes were washed twice in plus Ca^2+ solution containing 1 mg/ml bovine serum albumin. The washing steps remove non-internalised FM2-10 and the tyrphostins. Washed synaptosomes were resuspended in plus Ca^2+ solution at 37° C., transferred to a fluorimeter cuvette and stimulated with a standard addition of 30 mM KCl (S2). The standard S2 stimulation releases all accumulated FM2-10 and allows endocytosis to be measured as the decrease in FM2-10 fluorescence due to dye release into solution (excitation 488 nm, emission 540 nm).
Endocytosis was calculated as the decrease in absolute fluorescence stimulated by 30 mM KCl at S2. […] Retrieval efficiency is a more accurate measure of endocytosis since it takes into account the amount of prior exocytosis. Retrieval efficiency was calculated as endocytosis/exocytosis, where endocytosis is defined as above and exocytosis as Ca^2+-dependent glutamate release after 2 min of stimulation. The retrieval efficiency value was normalised to a ratio of 1.0 for 30 mM KCl.

dynamin I, sequence (A0ACI6NZN1 entry or part of it): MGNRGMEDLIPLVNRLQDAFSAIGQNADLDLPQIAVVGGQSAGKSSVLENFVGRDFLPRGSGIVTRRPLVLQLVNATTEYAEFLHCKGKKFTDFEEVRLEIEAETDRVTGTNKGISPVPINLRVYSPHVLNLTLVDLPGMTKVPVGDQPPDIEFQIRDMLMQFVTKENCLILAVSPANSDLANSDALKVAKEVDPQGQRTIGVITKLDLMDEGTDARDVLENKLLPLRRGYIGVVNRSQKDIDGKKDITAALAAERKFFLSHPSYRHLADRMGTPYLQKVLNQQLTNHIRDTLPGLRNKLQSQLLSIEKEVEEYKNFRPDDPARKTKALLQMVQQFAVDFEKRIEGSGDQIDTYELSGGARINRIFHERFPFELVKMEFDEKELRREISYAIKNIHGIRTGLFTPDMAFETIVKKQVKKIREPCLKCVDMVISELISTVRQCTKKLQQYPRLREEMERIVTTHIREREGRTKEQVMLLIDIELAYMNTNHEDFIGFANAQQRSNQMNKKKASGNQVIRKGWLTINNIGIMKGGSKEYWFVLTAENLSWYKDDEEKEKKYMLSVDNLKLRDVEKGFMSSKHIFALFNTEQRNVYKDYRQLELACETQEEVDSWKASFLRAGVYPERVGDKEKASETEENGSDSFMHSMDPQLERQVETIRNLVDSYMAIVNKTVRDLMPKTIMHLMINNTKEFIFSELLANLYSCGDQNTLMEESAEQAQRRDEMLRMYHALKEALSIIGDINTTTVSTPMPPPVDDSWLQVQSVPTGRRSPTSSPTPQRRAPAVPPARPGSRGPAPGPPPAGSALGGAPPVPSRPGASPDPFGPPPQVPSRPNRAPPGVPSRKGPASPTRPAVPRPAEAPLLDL

N#C/C(=C\c1ccc(O)c(O)c1)C(=O)NCCCNC(=O)/C(C#N)=C/c1ccc(O)c(O)c1 [bis-tyrphostin]
phospholipid binding and dynamin helix assembly (dynamin I): completely unaffected; also recorded: does not block dynamin binding to lipid
effect on [α-32P]-GTP binding to RalA (RalA): neither drug affected
effect on [α-32P]-GTP binding to Rab3A (Rab3A): neither drug affected
ability to inhibit GTPase activity of dynamin I lacking the PH domain (ΔPH domain dynamin I): still inhibits
inhibition of ΔPH domain dynamin I GTP hydrolysis (ΔPH domain dynamin I; at 10 μM): more than 50%
inhibition of synaptic vesicle endocytosis (SVE) [1]: specifically decreases endocytosis
inhibition of synaptic vesicle endocytosis (SVE) ([1]; listed as Bis-tyrphostin): significantly inhibited
